From patent USRE46792E1, “Oxazole compound and pharmaceutical composition” (Otsuka Pharmaceutical Co., Ltd., priority 2005, dated 2018) come the findings set out here.

Chain of human PDE4D3 (PDE4D) (Q08499 other isoform, or with tags, fused parts or gaps): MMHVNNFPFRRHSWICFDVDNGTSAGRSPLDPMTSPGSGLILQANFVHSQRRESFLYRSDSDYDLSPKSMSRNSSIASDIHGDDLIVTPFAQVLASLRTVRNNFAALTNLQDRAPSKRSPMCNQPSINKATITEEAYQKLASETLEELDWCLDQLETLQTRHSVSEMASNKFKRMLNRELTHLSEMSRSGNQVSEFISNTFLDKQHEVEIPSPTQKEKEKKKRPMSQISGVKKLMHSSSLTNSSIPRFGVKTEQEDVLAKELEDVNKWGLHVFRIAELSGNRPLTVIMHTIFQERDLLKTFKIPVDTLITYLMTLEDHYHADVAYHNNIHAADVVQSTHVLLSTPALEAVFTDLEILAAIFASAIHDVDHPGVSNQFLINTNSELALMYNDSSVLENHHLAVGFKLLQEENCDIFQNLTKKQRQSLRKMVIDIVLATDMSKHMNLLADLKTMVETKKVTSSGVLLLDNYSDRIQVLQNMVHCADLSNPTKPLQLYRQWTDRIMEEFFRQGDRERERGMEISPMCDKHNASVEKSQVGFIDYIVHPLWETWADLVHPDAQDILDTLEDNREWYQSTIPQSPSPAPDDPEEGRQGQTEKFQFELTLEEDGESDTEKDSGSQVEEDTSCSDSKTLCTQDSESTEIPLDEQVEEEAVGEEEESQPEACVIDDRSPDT

The experiment has as its target human PDE4D3 (PDE4D) (Homo sapiens (Human), UniProt Q08499). The experiment is described as follows: Phosphodiesterase (PDE)4 inhibitory activity evaluation test ([3H]cAMP hydrolysis by PDE4D enzyme solution). In kind it is biochemical. To be noted: recombinant human PDE4D3 expressed in COS-7 cells; [3H]cAMP substrate; 10 min at 30° C.; 2% DMSO. A digest of the protocol:
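Human PDE4D3 expressed in COS-7 cells; cell supernatant used as enzyme at a dilution giving 10–30% cAMP turnover. Compounds (10-fold serial dilutions, 2% final DMSO) incubated with enzyme and 2 μM [3H]cAMP stock in 20 mM Tris-HCl pH 7.4 with MgCl2 for 10 min at 30° C. Reaction stopped by boiling.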
With `CCC(CC)Oc1cc(-c2nc(CCC(=O)c3ncccc3C)co2)ccc1OC` [Example 312, 3-{2-[3-(1-ethylpropoxy)-4-methoxyphenyl]oxazol-4-yl}-1-(3-methylpyridin-2-yl)propan-1-one], the IC50 was less than 50 nM.
Take `CCOc1ccccc1C(=O)CCc1coc(-c2ccc(OC)c(OCC(F)F)c2)n1` [Example 314, 3-{2-[3-(2,2-difluoroethoxy)-4-methoxyphenyl]oxazol-4-yl}-1-(2-ethoxyphenyl)propan-1-one]: the IC50 was less than 50 nM.
For `CCOc1ccccc1C(=O)CCc1coc(-c2ccc(OC)c(OCCF)c2)n1` [Example 315, 1-(2-ethoxyphenyl)-3-{2-[3-(2-fluoroethoxy)-4-methoxyphenyl]oxazol-4-yl}propan-1-one] the value was less than 50 nM; for `CCOc1ccc(-c2nc(CCC(=O)c3ncccc3C)co2)cc1OCC(F)F` [Example 318, 3-{2-[3-(2,2-difluoroethoxy)-4-ethoxyphenyl]oxazol-4-yl}-1-(3-methylpyridin-2-yl)-propan-1-one], less than 50 nM; for `CCC(CC)Oc1cc(-c2nc(CNC(=O)c3ncccc3C)co2)ccc1OC` [Example 324, N-{2-[3-(1-ethylpropoxy)-4-methoxyphenyl]oxazol-4-ylmethyl}-3-methylpicolinamide], less than 50 nM.
Take `Cc1cccnc1C(=O)CCc1coc(-c2ccc(OC(F)F)c(OCC3CC3)c2)n1` [Example 328, 3-[2-(3-cyclopropylmethoxy-4-difluoromethoxyphenyl)oxazol-4-yl]-1-(3-methylpyridin-2-yl)propan-1-one]: the IC50 is less than 50 nM.
For `CCCOc1cc(-c2nc(CCC(=O)c3ncccc3C)co2)ccc1OC(F)F` [Example 329, 3-[2-(4-difluoromethoxy-3-propoxyphenyl)oxazol-4-yl]-1-(3-methylpyridin-2-yl)propan-1-one] the value was less than 50 nM; for `C=CCOc1cc(-c2nc(CCC(=O)c3ncccc3C)co2)ccc1OC(F)F` [Example 330, 3-[2-(3-allyloxy-4-difluoromethoxyphenyl)oxazol-4-yl]-1-(3-methylpyridin-2-yl)propan-1-one], less than 50 nM; for `C=CCCOc1cc(-c2nc(CCC(=O)c3ncccc3C)co2)ccc1OC(F)F` [Example 331, 3-[2-(3-but-3-enyloxy-4-difluoromethoxyphenyl)-oxazol-4-yl]-1-(3-methylpyridin-2-yl)propan-1-one], less than 50 nM.
Consider `Cc1cccnc1C(=O)CCc1coc(-c2ccc(OC(F)F)c(OC(C)C)c2)n1` [Example 332, 3-[2-(4-difluoromethoxy-3-isopropoxyphenyl)oxazol-4-yl]-1-(3-methylpyridin-2-yl)propan-1-one], for which the IC50 is less than 50 nM.
For `CCOc1cc(-c2nc(CCC(=O)c3ncccc3C)co2)ccc1OC(F)F` [Example 333, 3-[2-(4-difluoromethoxy-3-ethoxyphenyl)oxazol-4-yl]-1-(3-methylpyridin-2-yl)propan-1-one] the value was less than 50 nM; for `CCOc1cc(-c2nc(CCC(=O)c3ccccc3OCC)co2)ccc1OC(F)F` [Example 334, 3-[2-(4-difluoromethoxy-3-ethoxyphenyl)oxazol-4-yl]-1-(2-ethoxyphenyl)propan-1-one], less than 50 nM; for `C=CCOc1cc(-c2nc(CCC(=O)c3ccccc3OCC)co2)ccc1OC(F)F` [Example 335, 3-[2-(3-allyloxy-4-difluoromethoxyphenyl)oxazol-4-yl]-1-(2-ethoxyphenyl)propan-1-one], less than 50 nM.
Regarding `CCOc1ccccc1C(=O)CCc1coc(-c2ccc(OC(F)F)c(OCC3CC3)c2)n1` [Example 336, 3-[2-(3-cyclopropylmethoxy-4-difluoromethoxyphenyl)oxazol-4-yl]-1-(2-ethoxyphenyl)propan-1-one], the IC50 was less than 50 nM.
For `C=CCCOc1cc(-c2nc(CCC(=O)c3ccccc3OCC)co2)ccc1OC(F)F` [Example 337, 3-[2-(3-but-3-enyloxy-4-difluoromethoxyphenyl)oxazol-4-yl]-1-(2-ethoxyphenyl)propan-1-one] the value was less than 50 nM; for `CCOc1cc(-c2nc(CNC(=O)c3ncccc3C)co2)ccc1OC(F)F` [Example 338, N-[2-(4-difluoromethoxy-3-ethoxyphenyl)-oxazol-4-ylmethyl]-3-methylpicolinamide], less than 50 nM; for `C=CCOc1cc(-c2nc(CNC(=O)c3ncccc3C)co2)ccc1OC(F)F` [Example 339, N-[2-(3-allyloxy-4-difluoromethoxyphenyl)oxazol-4-ylmethyl]-3-methylpicolinamide], less than 50 nM.
For `CCCOc1cc(-c2nc(CNC(=O)c3ncccc3C)co2)ccc1OC(F)F` [Example 340, N-[2-(4-difluoromethoxy-3-propoxyphenyl)oxazol-4-ylmethyl]-3-methylpicolinamide] the value was less than 50 nM; for `Cc1cccnc1C(=O)NCc1coc(-c2ccc(OC(F)F)c(OC(C)C)c2)n1` [Example 341, N-[2-(4-difluoromethoxy-3-isopropoxyphenyl)oxazol-4-ylmethyl]-3-methylpicolinamide], less than 50 nM.
Take `CCC(CC)Oc1cc(-c2nc(CNC(=O)c3ncccc3C)co2)ccc1OC(F)F` [Example 342, N-{2-[4-difluoromethoxy-3-(1-ethylpropoxy)phenyl]oxazol-4-ylmethyl}-3-methylpicolinamide]: the IC50 was less than 50 nM.
For `C=CCCOc1cc(-c2nc(CNC(=O)c3ncccc3C)co2)ccc1OC(F)F` [Example 343, N-[2-(3-but-3-enyloxy-4-difluoromethoxyphenyl)oxazol-4-ylmethyl]-3-methylpicolinamide] the value was less than 50 nM; for `Cc1cccnc1C(=O)NCc1coc(-c2ccc(OC(F)F)c(OCC(C)C)c2)n1` [Example 344, N-[2-(4-difluoromethoxy-3-isobutoxyphenyl)oxazol-4-ylmethyl]-3-methylpicolinamide], less than 50 nM.
For `Cc1cccnc1C(=O)NCc1coc(-c2ccc(OC(F)F)c(OCC3CCC3)c2)n1` [Example 345, N-[2-(3-cyclobutylmethoxy-4-difluoromethoxyphenyl)oxazol-4-ylmethyl]-3-methyl picolinamide] the value was less than 50 nM.
For `CCOc1ccccc1C(=O)NCc1coc(-c2ccc(OC(F)F)c(OCC(C)C)c2)n1` [Example 348, N-[2-(4-difluoromethoxy-3-isobutoxyphenyl)oxazol-4-ylmethyl]-2-ethoxybenzamide] the value was less than 50 nM.
Take `CCOc1cc(-c2nc(CNC(=O)c3ccccc3OCC)co2)ccc1OC(F)F` [Example 349, N-[2-(4-difluoromethoxy-3-ethoxyphenyl)oxazol-4-ylmethyl]-2-ethoxybenzamide]: the IC50 was less than 50 nM.
For `CCCOc1cc(-c2nc(CNC(=O)c3ccccc3OCC)co2)ccc1OC(F)F` [Example 350, N-[2-(4-difluoromethoxy-3-propoxyphenyl)oxazol-4-ylmethyl]-2-ethoxybenzamide] the value was less than 50 nM; for `C=CCOc1cc(-c2nc(CNC(=O)c3ccccc3OCC)co2)ccc1OC(F)F` [Example 351, N-[2-(3-allyloxy-4-difluoromethoxyphenyl)oxazol-4-ylmethyl]-2-ethoxybenzamide], less than 50 nM.
For `CCOc1ccccc1C(=O)NCc1coc(-c2ccc(OC(F)F)c(OC(C)C)c2)n1` [Example 352, N-[2-(4-difluoromethoxy-3-isopropoxyphenyl)oxazol-4-ylmethyl]-2-ethoxybenzamide] the value was less than 50 nM.
With `CCOc1ccccc1C(=O)NCc1coc(-c2ccc(OC(F)F)c(OCC3CC3)c2)n1` [Example 353, N-[2-(3-cyclopropylmethoxy-4-difluoromethoxyphenyl)oxazol-4-ylmethyl]-2-ethoxy benzamide], the IC50 was less than 50 nM.
For `C=CCCOc1cc(-c2nc(CNC(=O)c3ccccc3OCC)co2)ccc1OC(F)F` [Example 354, N-[2-(3-but-3-enyloxy-4-difluoromethoxyphenyl)oxazol-4-ylmethyl]-2-ethoxybenzamide] the value was less than 50 nM; for `CCOc1ccccc1C(=O)NCc1coc(-c2ccc(OC(F)F)c(OC(CC)CC)c2)n1` [Example 355, N-{2-[4-difluoromethoxy-3-(1-ethylpropoxy)phenyl]oxazol-4-ylmethyl}-2-ethoxybenzamide], less than 50 nM.
For `CCOc1ccccc1C(=O)NCc1coc(-c2ccc(OC(F)F)c(OCC(F)F)c2)n1` [Example 382, N-{2-[4-difluoromethoxy-3-(2,2-difluoroethoxy)phenyl]-oxazol-4-ylmethyl}-2-ethoxy benzamide] the value was less than 50 nM.
For `CCOc1ccccc1C(=O)NCc1coc(-c2ccc(OC(F)F)c(OCC(F)(F)F)c2)n1` [Example 383, N-{2-[4-difluoromethoxy-3-(2,2,2-trifluoroethoxy)phenyl]-oxazol-4-ylmethyl}-2-ethoxy benzamide] the value was less than 50 nM; for `COc1ccc(-c2nc(CNC(=O)c3ncccc3C)co2)cc1OC(C)C` [Example 384, N-[2-(4-methoxy-3-isopropoxyphenyl)oxazol-4-ylmethyl]-3-methylpicolinamide], less than 50 nM.

In general, IC50 refers to the point on the concentration scale where inhibition reaches its midpoint.
